From patent US20230285557A1, “MULTI-PARALLEL ANALYSIS OF T-CELL THERAPIES” (The Board of Trustees of the Leland Stanford Junior …, priority 2020, published 2023)

Tests used:
[1] = system: PMEL CD8^+ T cells; test: CyTOF phenotyping of ex vivo expanded PMEL T cells stimulated with or without 2HC; format: cell-based, murine; settings: 5 mM 2HC during ex vivo expansion, vs untreated cells (effector and exhausted phenotype)
Excerpt: This Example describes experiments performed to apply the CyTOF technology to a comprehensively capture the phenotypic space of T cells. As described below, an in-depth understanding of the phenotype of differentially activated tumor-specific T cells can be achieved by using a CyTOF technique. […] Also used in these experiments was a palladium-based mass tag cell barcoding technique that enabled simultaneous analysis and pooling of 20 samples at a time, which allowed efficient multiplexing and reducing batch effects.
Generally, cells were suspended in supplemented media: complete RPMI 1640 media (with glutamine) with 1× non-essential amino acids, 1 mM sodium pyruvate, 0.4× vitamin solution, 92 µM 2-mercaptoethanol, 10 µM ciprofloxacin, 10% fetal bovine serum (FBS), and 50 IU/ml IL-2. At Day 0, splenocytes were used at a concentration of 2×10^6/ml, 100 µL /well in 96 well plate u-bottom. The cultures were started with 100×10^6 cells per condition, in 50 mL T cell media containing 60 IU/mL IL-2, 10 µg/mL GP100, and 5 mM 2HC (85 mg). At Day 3, the cell culture was fed with 50 µL media containing 120 IU/mL IL-2 and 5 mM 2HC. At Day 4, the cell culture was fed with 80 µL media containing 120 IU/mL IL-2 and 5 mM 2HC. […]
On Day 9, cells were counted and harvested into FACS tubes for CyTOF analysis using a panel of CYTOF biomarkers (see, e.g., FIG. 1 and Table 1). […]

[2] = system: T memory stem cells; settings: previously reported; by altering acetyl-Coenzyme A levels; cited from earlier work

Structure (SMILES): O=C([O-])CC(O)(C(=O)[O-])C(O)C(=O)[O-].[K+].[K+].[K+] (centres unmarked) [2HC, tripotassium 2-hydroxycitrate]
- shift of T cell phenotype on incubation with inhibitor of acetyl-CoA production [1]: drastically shifted T cells towards a more memory like phenotype
- generation of T memory stem cells [2]: increases the generation of T memory stem cells
